Patent publication US12516364B2, “Device for testing bacterium, and method for testing bacterium” (Hitachi High-Tech Corporation, priority 2018, dated 2026)

System: Escherichia coli
Test: antibacterial susceptibility determination from microscopic images (luminance value and area of bacteria)
Format: cell-based
Conditions: ampicillin 2 μg/mL; 0 to 360 minutes; with or without minimum filter; growth has not occurred over the entire image
Method: The test plate 102 has a plurality of wells, and each well holds a medium component that facilitate the growth of bacteria and an antibacterial drug to be tested. After a bacterial solution containing the bacteria to be tested is dispensed to each well, the test plate 102 is introduced into the bacteria test apparatus 100. The bacteria test apparatus 100 is adjusted to a temperature, such as 37° C., at which the bacteria can grow.
The illuminator 101 illuminates the test plate 102 with light. As the illuminator 101, a light source of white light such as a lamp or a light source of light in a specific wavelength range such as an LED may be used. Light passing through each well of the test plate 102 is condensed by the objective lens 103 and measured as an image by the imager 104. […] Further, images of a plurality of points in each well may be captured, or alternatively, a plurality of images of the inside of the culture solution away from the bottom surface of each well of the test plate 102 may be measured. […]
The determiner 1055 acquires the new feature from the arithmetic unit 1051 and outputs the determination result for each well. […] The mean of luminance values is calculated from the image captured at the preset determination time, and a difference from the mean of luminance values at an initial culture stage is calculated. […]

CC1(C)S[C@@H]2[C@H](NC(=O)[C@H](N)c3ccccc3)C(=O)N2[C@H]1C(=O)O [ampicillin]
time variation in mode of luminance values: does not vary
